The record followed here is patent US20220168307A1, “TREATMENT OF SMA” (Hoffmann-La Roche Inc., priority 2019, published 2022).

Entries after “also recorded” stand apart in the source; their conditions may differ.

In one data set the target is CYP3A4 (Homo sapiens, UniProt P08684). As to the kind of experiment: Direct inhibition of CYP3A4 (midazolam and testosterone) in human liver microsomes. It is filed as in vitro ADME. Conditions: human, microsomes. Background: Microsomes from liver hold many membrane-bound enzymes, among them those of drug oxidation.
CYP3A4, sequence (P08684 2-503): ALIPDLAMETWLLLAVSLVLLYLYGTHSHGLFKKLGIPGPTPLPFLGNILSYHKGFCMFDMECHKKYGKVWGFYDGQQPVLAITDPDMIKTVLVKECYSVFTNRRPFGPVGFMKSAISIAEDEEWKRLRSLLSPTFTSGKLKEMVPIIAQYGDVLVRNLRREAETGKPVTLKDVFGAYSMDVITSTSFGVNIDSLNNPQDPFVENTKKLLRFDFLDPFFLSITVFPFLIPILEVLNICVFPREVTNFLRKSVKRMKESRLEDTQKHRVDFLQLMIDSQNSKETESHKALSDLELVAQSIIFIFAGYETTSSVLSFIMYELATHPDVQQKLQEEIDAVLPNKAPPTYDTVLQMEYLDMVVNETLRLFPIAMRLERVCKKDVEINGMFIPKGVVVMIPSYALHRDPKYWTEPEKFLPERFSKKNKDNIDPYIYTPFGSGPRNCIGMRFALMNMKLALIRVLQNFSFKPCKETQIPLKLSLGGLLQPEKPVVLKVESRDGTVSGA
Data set [1] concerns the target T1, CYP1A2 (Homo sapiens, UniProt P05177).
T1 sequence (P05177 1-516): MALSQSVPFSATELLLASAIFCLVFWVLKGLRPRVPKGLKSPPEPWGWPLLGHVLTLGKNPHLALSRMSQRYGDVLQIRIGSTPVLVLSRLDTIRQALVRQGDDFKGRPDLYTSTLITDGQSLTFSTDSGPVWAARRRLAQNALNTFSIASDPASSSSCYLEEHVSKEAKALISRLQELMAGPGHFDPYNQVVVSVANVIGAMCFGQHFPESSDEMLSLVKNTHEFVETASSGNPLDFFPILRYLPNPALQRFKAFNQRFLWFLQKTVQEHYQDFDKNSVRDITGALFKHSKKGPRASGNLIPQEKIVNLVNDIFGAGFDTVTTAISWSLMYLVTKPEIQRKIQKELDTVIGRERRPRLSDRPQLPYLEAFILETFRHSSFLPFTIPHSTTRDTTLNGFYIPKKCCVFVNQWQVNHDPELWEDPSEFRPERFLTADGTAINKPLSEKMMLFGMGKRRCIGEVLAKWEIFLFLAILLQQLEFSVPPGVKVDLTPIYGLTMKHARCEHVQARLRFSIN
As to the kind of experiment: Time-dependent inhibition (IC50 shift) of CYP1A2 in human liver microsomes. It is filed as in vitro ADME. Conditions: risdiplam up to 12.5 μM. The protocol:
(§1) Donors CMV negative for serology are unm
(§2) All incubations were conducted in duplicate.
(§3) % remaining=(C+I/C^−I)*100

In data set [2] the target is T2, CYP2C8 (Homo sapiens, UniProt P10632).
T2 sequence (P10632 1-490): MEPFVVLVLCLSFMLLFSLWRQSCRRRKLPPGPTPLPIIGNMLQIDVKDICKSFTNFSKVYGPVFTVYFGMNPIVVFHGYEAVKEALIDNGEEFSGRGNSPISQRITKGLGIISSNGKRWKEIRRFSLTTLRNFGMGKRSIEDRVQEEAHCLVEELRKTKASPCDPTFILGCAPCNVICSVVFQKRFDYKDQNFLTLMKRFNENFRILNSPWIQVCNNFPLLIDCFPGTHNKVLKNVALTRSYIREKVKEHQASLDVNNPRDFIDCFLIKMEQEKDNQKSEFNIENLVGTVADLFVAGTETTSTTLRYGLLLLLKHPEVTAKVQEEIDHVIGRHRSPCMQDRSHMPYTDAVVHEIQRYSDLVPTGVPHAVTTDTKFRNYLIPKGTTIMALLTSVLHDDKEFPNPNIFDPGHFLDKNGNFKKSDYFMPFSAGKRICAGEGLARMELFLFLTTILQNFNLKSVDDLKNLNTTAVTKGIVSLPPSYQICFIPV
As to the kind of experiment: Time-dependent inhibition (IC50 shift) of CYP2C8 in human liver microsomes. Conditions: risdiplam up to 12.5 μM. On the procedure: as §1, §2, §3

The target in data set [3] is T3, CYP2D6 (Homo sapiens, UniProt P10635).
T3 sequence (P10635 whole entry): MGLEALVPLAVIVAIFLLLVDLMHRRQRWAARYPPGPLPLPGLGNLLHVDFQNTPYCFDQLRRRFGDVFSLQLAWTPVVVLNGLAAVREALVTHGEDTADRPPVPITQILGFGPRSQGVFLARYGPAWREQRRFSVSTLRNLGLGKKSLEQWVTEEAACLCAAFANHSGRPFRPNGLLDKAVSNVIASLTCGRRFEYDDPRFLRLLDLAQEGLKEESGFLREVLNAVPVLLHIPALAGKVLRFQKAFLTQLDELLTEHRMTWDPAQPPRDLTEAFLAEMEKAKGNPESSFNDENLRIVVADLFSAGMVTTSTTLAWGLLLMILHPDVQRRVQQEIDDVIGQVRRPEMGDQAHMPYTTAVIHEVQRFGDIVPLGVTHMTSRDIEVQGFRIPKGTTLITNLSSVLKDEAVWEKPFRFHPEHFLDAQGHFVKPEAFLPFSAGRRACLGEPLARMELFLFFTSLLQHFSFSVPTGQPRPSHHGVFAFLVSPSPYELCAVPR
The target in data set [4] is T4, CYP2B6 (Homo sapiens, UniProt P20813).
T4 sequence (P20813 1-491): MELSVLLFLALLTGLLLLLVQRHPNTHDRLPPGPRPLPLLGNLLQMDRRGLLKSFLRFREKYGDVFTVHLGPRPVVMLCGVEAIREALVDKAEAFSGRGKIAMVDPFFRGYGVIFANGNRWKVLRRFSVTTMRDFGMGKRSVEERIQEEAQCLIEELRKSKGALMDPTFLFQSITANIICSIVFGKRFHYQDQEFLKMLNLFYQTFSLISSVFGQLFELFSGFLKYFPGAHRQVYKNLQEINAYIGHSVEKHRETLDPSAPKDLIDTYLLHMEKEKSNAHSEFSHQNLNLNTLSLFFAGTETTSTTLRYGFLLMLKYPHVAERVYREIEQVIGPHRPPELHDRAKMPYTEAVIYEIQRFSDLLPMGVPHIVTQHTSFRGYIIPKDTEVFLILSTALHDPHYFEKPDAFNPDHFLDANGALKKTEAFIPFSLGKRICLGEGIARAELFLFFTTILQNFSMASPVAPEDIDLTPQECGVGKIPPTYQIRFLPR
As to the kind of experiment: in vitro. As to conditions: pooled human liver microsomes, pH 7.4, probe bupropion.

Data set [5] has as its target T2, CYP2C8. As to the kind of experiment: in vitro. Conditions: pooled human liver microsomes, pH 7.4, probe amodiaquine.
In data set [6] the target is T3, CYP2D6. As to the kind of experiment: in vitro. As to conditions: pooled human liver microsomes, pH 7.4, probe dextromethorphan, % Control activity at, direct inhibition, substrate Dextromethorphan, concentration not given, duplicates.
Data set [7] deals with T1, CYP1A2. As to the kind of experiment: biochemical.
Data set [8] addresses T4, CYP2B6. As to the kind of experiment: biochemical.
For data set [9], the target named is T5, CYP2C9 (Homo sapiens, UniProt P11712). As to the kind of experiment: biochemical.
T5 sequence (P11712 whole entry): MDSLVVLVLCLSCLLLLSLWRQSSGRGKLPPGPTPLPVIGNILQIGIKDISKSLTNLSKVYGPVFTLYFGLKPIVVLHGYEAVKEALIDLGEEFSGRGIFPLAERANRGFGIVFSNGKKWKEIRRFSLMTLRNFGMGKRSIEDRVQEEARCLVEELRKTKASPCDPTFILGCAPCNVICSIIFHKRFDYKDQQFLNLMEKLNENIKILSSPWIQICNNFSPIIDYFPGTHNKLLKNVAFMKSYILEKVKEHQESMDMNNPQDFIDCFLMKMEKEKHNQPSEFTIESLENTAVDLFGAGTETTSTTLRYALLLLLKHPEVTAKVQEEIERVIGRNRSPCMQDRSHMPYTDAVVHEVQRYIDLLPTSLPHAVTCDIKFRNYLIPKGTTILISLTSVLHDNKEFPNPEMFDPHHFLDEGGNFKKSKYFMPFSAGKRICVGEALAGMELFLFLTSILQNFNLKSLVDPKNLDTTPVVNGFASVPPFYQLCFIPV
Data set [10] concerns the target T6, CYP2C19 (Homo sapiens, UniProt P33261). As to the kind of experiment: biochemical.
Data set [11] concerns the target T3, CYP2D6. As to the kind of experiment: biochemical.
Data set [12] concerns the target T4, CYP2B6. As to the kind of experiment: Direct inhibition of CYP2B6 (bupropion) in human liver microsomes.
The target of data set [13] is T1, CYP1A2. As to the kind of experiment: Direct inhibition of CYP1A2 (phenacetin) in human liver microsomes.
In data set [14] the target is T5, CYP2C9. As to the kind of experiment: Direct inhibition of CYP2C9 (diclofenac) in human liver microsomes.
Data set [15] has as its target T6, CYP2C19. As to the kind of experiment: Time-dependent inhibition (IC50 shift) of CYP2C19 in human liver microsomes. As to conditions: risdiplam up to 12.5 μM.

T6 sequence (P33261 whole entry): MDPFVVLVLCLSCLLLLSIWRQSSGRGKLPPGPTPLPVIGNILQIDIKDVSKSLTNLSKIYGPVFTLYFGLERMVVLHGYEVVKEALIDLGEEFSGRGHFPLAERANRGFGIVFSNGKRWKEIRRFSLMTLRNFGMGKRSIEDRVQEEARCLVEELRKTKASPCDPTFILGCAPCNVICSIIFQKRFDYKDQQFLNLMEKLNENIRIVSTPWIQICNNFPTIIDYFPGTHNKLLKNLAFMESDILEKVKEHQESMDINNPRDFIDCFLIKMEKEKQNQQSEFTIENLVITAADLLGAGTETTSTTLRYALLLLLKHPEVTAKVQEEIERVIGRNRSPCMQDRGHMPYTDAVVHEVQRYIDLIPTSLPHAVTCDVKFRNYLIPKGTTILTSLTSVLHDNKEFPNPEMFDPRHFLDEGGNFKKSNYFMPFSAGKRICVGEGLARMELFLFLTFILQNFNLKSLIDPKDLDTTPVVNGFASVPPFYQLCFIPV

A word on the IC50: it is the concentration that inhibits the measured activity by half. Low values mean greater potency, high ones weaker potency. Consider `Cc1cn2nc(-c3cc(=O)n4cc(N5CCNC6(CC6)C5)ccc4n3)cc(C)c2n1` [risdiplam, 7-(4,7-diazaspiro[2.5]octan-7-yl)-2-(2,8-dimethylimidazo[1,2-b]pyridazin-6-yl)pyrido[1,2-a]pyrimidin-4-one], for which the IC50 is over 12.5 µM on CYP3A4 (pH 7.4, IC50, direct inhibition, substrate Midazolam); 11 µM on CYP3A4 (pH 7.4, IC50, direct inhibition, substrate Testosterone); under 12.5 µM at CYP3A4 (pH 7.4, IC50, direct, CYP3A4-Midazolam Activity); over 12.5 µM on CYP1A2 [7]; over 12.5 µM on CYP2B6 [8]; over 12.5 µM against CYP2C9 [9]. The IC50 against CYP2C19 [10] and on CYP2D6 [11] was over 12.5 µM in each case. In addition, the “time-dependent inhibition (in words)” value on CYP1A2 [1], on CYP2C8 [2] and on CYP2C19 [15] was “did not show any significant reversible or time-dependent inhibition; also recorded: No significant reversible or time-dependent inhibition; also recorded: No significant time-dependent inhibition; also recorded: low potential to cause direct or time-dependent inhibition” in each case. Besides, the “% Control activity at” value on CYP2D6 [3] (direct inhibition, substrate Dextromethorphan, concentration not given, duplicates) worked out at 95%; on CYP2B6 [12] (direct inhibition, substrate Bupropion, concentration not given, duplicates), 94%; at CYP1A2 [13] (direct inhibition, substrate Phenacetin, concentration not given, duplicates), 101%; on CYP2C9 [14] (direct inhibition, substrate Diclofenac, concentration not given, duplicates), 82%. Further, the “reversible (direct) inhibition (in words)” value at CYP2D6 [3] (risdiplam up to 12.5 μM), at CYP2B6 [12] (risdiplam up to 12.5 μM), at CYP1A2 [13] (risdiplam up to 12.5 μM) and at CYP2C9 [14] (risdiplam up to 12.5 μM) was “did not show any significant reversible or time-dependent inhibition; also recorded: No significant reversible or time-dependent inhibition; also recorded: No significant reversible inhibition; also recorded: low potential to cause direct or time-dependent inhibition” throughout. Further, the activity on CYP2B6 [4] came to 88%; on CYP2C8 [5], 93%; on CYP2D6 [6], 97%.
